From ChEMBL document CHEMBL3414500, “New polycyclic dual inhibitors of the wild type and the V27A mutant M2 channel of the influenza A virus with unexpected binding mode” (Eur J Med Chem, 2015)

Target: Matrix protein 2 (Influenza A virus (A/Udorn/307/1972(H3N2)), UniProt P0DOF8, V27A)

C1=C[C@H]2[C@H]3[C@H]4[C@@H]1[C@@H]1[C@H]2[C@@H]2[C@H]3[C@@H]3CNC[C@@H]3[C@H]4[C@H]12
IC50: 185 µM

C1C[C@H]2[C@H]3[C@H]4[C@@H]1[C@@H]1[C@H]2[C@@H]2[C@H]3[C@@H]3CNC[C@@H]3[C@H]4[C@H]12
IC50: 17.2 µM

N=C(N)N1C[C@@H]2[C@H](C1)[C@@H]1[C@@H]3[C@H]4CC[C@H]5[C@@H]3[C@H]2[C@H]2[C@@H]5[C@@H]4[C@@H]12
IC50: 32.2 µM
